# Source: patent US20250288587A1, “Methods of Treating Fibrosis” (Athira Pharma, Inc., priority 2022, published 2025)
# How the values were obtained:
# CFA-stimulated rats [1] = assay: CFA inflammatory pain model, thermal hyperalgesia (Hargreaves method); format: in vivo; parameters: key to Thermal Hyperalgesia, change in sensitivity compared to CFA alone / Thermal Hyperalgesia, significant reduction in pain behavior vs CFA alone: NS = no statistically significant change in sensitivity compared to CFA alone; + = statistically significant change in sensitivity compared to CFA alone, p < 0.05
# Method: (§1) Response to peripheral inflammatory stimulus can be modeled by administering complete Freund's adjuvant (CFA), a suspension of desiccated mycobacterium in paraffin oil and mannide monooleate, by subcutaneous injection into the rat's footpad. The introduction of CFA to peripheral tissues leads to a rapid, sustained, inflammatory reaction in the treated tissue within 24 hours. Subcutaneous administration of CFA in the plantar region of the paw induces inflammatory pain behaviors that persist for at least 8 days. CFA treatment also leads to the accumulation of inflammatory cytokines in paw tissue at the site of injury, which, if unresolved, can lead to formation of fibrotic tissue. The extent of inflammatory response to CFA can be assessed by quantification of inflammatory cytokines in paw skin lysate, and inflammatory pain behaviors by mechanical allodynia (von Frey test) and thermal hyperalgesia (Hargreaves test).
# (§2) In one study, Compound 2a was tested for its ability to reduce inflammatory pain behaviors in the CFA inflammation model. On study day 0, […] of CFA was administered subcutaneously in the plantar of the right hind paw. Animals were treated daily with Compound 2a in solution via oral gavage (PO) at doses of 1, 0.1, and 0.025 mg/kg. Treatment began before CFA injection on study day −1 and continued through study day 8.
# Thermal hyperalgesia was measured using the Hargreaves method. A temperature ramp was applied to the right hind paw and the paw withdrawal latency (PWL) was recorded as a measure of sensitivity to thermal stimulation. […] Statistical analysis was performed using a 1-way ANOVA with Tukey post-test. A p-value below 0.05 was considered statistically significant.
# (§3) In another study, Compounds 1a, 5a, and 6a were similarly tested against CFA-induced inflammatory stimulation in the right hind foot for their ability to reduce pain behaviors. This study also included quantification of inflammatory cytokine expression in paw skin lysate. Inflammatory pain stimulation with CFA injection and assessment of mechanical and thermal pain behaviors were performed as described above, with the exception that only post-dose pain behavior testing is reported.
# (§4) Intraplantar CFA injection occurred at day 0. Treatment with Compounds 1a, 5a, and 6a occurred at days −2, 1, 3, and 7. At day 8, the rats were terminated and cytokine levels were measured in paw skin and plasma. Tissue from paw bone, joint, and muscle were obtained for H&E staining and analysis. Cytokine levels in test compound-treated animals were compared to CFA-stimulated animals. Analytes included interleukin 4 (IL-4), tumor necrosis factor alpha (TNF-α) and interferon gamma (IFN-γ). Statistical analysis consisted of 1-way ANOVA followed by Dunnett's multiple comparisons post-test. Mechanical allodynia and thermal hyperalgesia were tested 1 hour post-dosing on days 1, 3, and 7. PWT refers to […] paw withdrawal threshold where a higher value corresponds to a higher pain threshold. PWL refers to […] paw withdrawal latency where a higher value corresponds to a higher pain threshold.
# CFA-stimulated rats [2] = assay: as above; format: in vivo; conditions: Day 5, 1 hour pre-dosing; data not shown
# [3] = system: THP-1-differentiated macrophages; assay: Pro-inflammatory cytokine expression in LPS-challenged THP-1-differentiated macrophages; format: cell-based, human; parameters: key to IL-6, significant reduction in culture supernatant vs LPS treatment / TNF-α, significant reduction in culture supernatant vs LPS treatment / IL-1β, significant reduction in culture supernatant vs LPS treatment: “NS” indicates a non-significant reduction in the indicated cytokine; “+” indicates a p value <0.05 in Tukey post test; “++” indicates a p value <0.01 in Tukey post test; conditions: for IL-1β, significant reduction in culture supernatant vs LPS treatment / IL-6, significant reduction in culture supernatant vs LPS treatment / TNF-α, significant reduction in culture supernatant vs LPS treatment: 20 min pre-treatment, 24 hrs LPS
# Method: Differentiation with PMA causes THP-1 monocyte cells to acquire functional and morphological resemblance to macrophages. LPS interacts with THP-1 differentiated macrophage through the toll-like receptor 4, triggering the inflammatory response and stimulating pro-inflammatory cytokine release and eventually leading to cellular death. Compounds were tested to determine their anti-inflammatory effects on LPS-challenged macrophage cultures. THP-1-differentiated macrophages were treated with test compounds for 20 minutes, followed by 24 hrs of LPS challenge. Culture supernatants were then collected to analyzed for the presence of pro-inflammatory cytokines: […], interleukin 6 (IL-6) and tumor necrosis factor α (TNF-α).
# Cytokine quantification in cell culture supernatants was accomplished by HTRF kits to assess levels of IL-1β (Human IL-1β kit, #62HIL1BPEG, Cisbio) and IL-6 (Human IL-6 kit, 62HIL06PET, Cisbio), and by ELISA to determine the levels of TNF-α (Human TNF-α ELISA kit, KHC3011, ThermoFisher).
# Data analysis was performed via 1-way ANOVA with Tukey post-test compared to LPS treatment cultures using Prism statistical software (GraphPad). Tabular data indicates significance of reduction in culture supernatants for the indicated analyte at the indicated doses.
# CFA-stimulated rats [4] = assay: CFA inflammatory pain model, mechanical allodynia (von Frey test); format: in vivo; parameters: key to Mechanical Allodynia, change in sensitivity compared to CFA alone / Mechanical Allodynia, significant reduction in pain behavior vs CFA alone: NS = no statistically significant change in sensitivity compared to CFA alone; + = statistically significant change in sensitivity compared to CFA alone, p < 0.05
# Method: as §1, §2
# Mechanical allodynia was measured using the von Frey test. In this test, rats were placed on a wire mesh and a series of filaments designed to deliver probing force ranging from 4 to 26 grams were applied to the mid-plantar surface of the right hind paw. Animals indicated pain response by lifting the probed paw. The minimal force required to elicit the withdrawal response was recorded as the paw withdrawal threshold (PWT). Von Frey testing was performed 1 hour after Compound 2a dosing on study day 1, 3, and 7, and was also tested pre-dosing on day 7. Statistical analysis was performed using a 1-way ANOVA with Tukey post-test. A p-value below 0.05 was considered statistically significant. Control animals stimulated with CFA but treated with only vehicle had high sensitivity to mechanical stimulation compared to normal control animals.
# as §3, §4
# CFA-stimulated rats [5] = assay: CFA inflammatory pain model, cytokine expression in paw skin; format: in vivo; parameters: key to IFN-γ expression in paw skin, change compared to CFA alone / IL-4 expression in paw skin, change compared to CFA alone / TNF-α expression in paw skin, change compared to CFA alone: NS = no statistically significant change in expression compared to CFA alone; + = statistically significant change in expression compared to CFA alone, p < 0.05; conditions: for IFN-γ expression in paw skin, change compared to CFA alone / IL-4 expression in paw skin, change compared to CFA alone / TNF-α expression in paw skin, change compared to CFA alone: day 8
# Method: as §1, §3, §4
# [6] = 2.5 mg/kg PO, Day 1, 1 h post-dose
# [7] = 2.5 mg/kg PO, Day 3, 1 h post-dose
# [8] = 2.5 mg/kg PO, Day 7, 1 h post-dose
# [9] = 10 mg/kg PO, Day 1, 1 h post-dose
# [10] = 10 mg/kg PO, Day 3, 1 h post-dose
# [11] = 10 mg/kg PO, Day 7, 1 h post-dose
smiles,measurement,setting,value
CCC(C)CN1CC2N(Cc3ccc(OC(F)F)cc3)CCC(=O)N2[C@@H](C)C1=O (some centres unmarked) [Compound 6a],"Thermal Hyperalgesia, significant reduction in pain behavior vs CFA alone",CFA-stimulated rats [1]; [6],NS
same,"Thermal Hyperalgesia, significant reduction in pain behavior vs CFA alone",CFA-stimulated rats [1]; [7],NS
same,"Thermal Hyperalgesia, significant reduction in pain behavior vs CFA alone",CFA-stimulated rats [1]; [8],"+ (+ = statistically significant change in sensitivity compared to CFA alone, p < 0.05)"
same,"Thermal Hyperalgesia, significant reduction in pain behavior vs CFA alone",CFA-stimulated rats [1]; [9],NS
same,"Thermal Hyperalgesia, significant reduction in pain behavior vs CFA alone",CFA-stimulated rats [1]; [10],NS
same,"Thermal Hyperalgesia, significant reduction in pain behavior vs CFA alone",CFA-stimulated rats [1]; [11],"+ (+ = statistically significant change in sensitivity compared to CFA alone, p < 0.05)"
same,study days on which thermal sensitivity was reduced,"CFA-stimulated rats [1]; PO, post-dose testing, any tested dose",study day 7
same,PWL (paw withdrawal latency) vs CFA+vehicle,"CFA-stimulated rats [1]; day 7 at each dose, data not shown",statistically significant increase
same,PWL (paw withdrawal latency),CFA-stimulated rats [2],statistically significant increase
same,"IL-1β, significant reduction in culture supernatant vs LPS treatment",[3]; 0.1 nM,NS
same,"IL-6, significant reduction in culture supernatant vs LPS treatment",[3]; 0.1 nM,NS
same,"TNF-α, significant reduction in culture supernatant vs LPS treatment",[3]; 0.1 nM,NS
same,"IL-1β, significant reduction in culture supernatant vs LPS treatment",[3]; 10 nM,NS
same,"IL-6, significant reduction in culture supernatant vs LPS treatment",[3]; 10 nM,NS
same,"TNF-α, significant reduction in culture supernatant vs LPS treatment",[3]; 10 nM,NS
same,"IL-1β, significant reduction in culture supernatant vs LPS treatment",[3]; 1000 nM,+ (“+” indicates a p value <0.05 in Tukey post test)
same,"IL-6, significant reduction in culture supernatant vs LPS treatment",[3]; 1000 nM,NS
same,"TNF-α, significant reduction in culture supernatant vs LPS treatment",[3]; 1000 nM,+ (“+” indicates a p value <0.05 in Tukey post test)
same,expression of IL-1β and TNF-α,[3]; at at least one tested dose,significantly reduced
same,"Mechanical Allodynia, significant reduction in pain behavior vs CFA alone",CFA-stimulated rats [4]; [6],NS
same,"Mechanical Allodynia, significant reduction in pain behavior vs CFA alone",CFA-stimulated rats [4]; [7],NS
same,"Mechanical Allodynia, significant reduction in pain behavior vs CFA alone",CFA-stimulated rats [4]; [8],NS
same,"Mechanical Allodynia, significant reduction in pain behavior vs CFA alone",CFA-stimulated rats [4]; [9],NS
same,"Mechanical Allodynia, significant reduction in pain behavior vs CFA alone",CFA-stimulated rats [4]; [10],NS
same,"Mechanical Allodynia, significant reduction in pain behavior vs CFA alone",CFA-stimulated rats [4]; [11],NS
same,"IFN-γ expression in paw skin, change compared to CFA alone",CFA-stimulated rats [5]; 2.5 mg/kg PO,NS
same,"IL-4 expression in paw skin, change compared to CFA alone",CFA-stimulated rats [5]; 2.5 mg/kg PO,"+ (+ = statistically significant change in expression compared to CFA alone, p < 0.05)"
same,"TNF-α expression in paw skin, change compared to CFA alone",CFA-stimulated rats [5]; 2.5 mg/kg PO,"+ (+ = statistically significant change in expression compared to CFA alone, p < 0.05)"
same,"IFN-γ expression in paw skin, change compared to CFA alone",CFA-stimulated rats [5]; 10 mg/kg PO,NS
same,"IL-4 expression in paw skin, change compared to CFA alone",CFA-stimulated rats [5]; 10 mg/kg PO,NS
same,"TNF-α expression in paw skin, change compared to CFA alone",CFA-stimulated rats [5]; 10 mg/kg PO,NS
same,IFN-γ expression in paw skin,CFA-stimulated rats [5]; both tested doses,no effect
